Columns and labels:
[1] = target: T1, NUAK1 (Homo sapiens, UniProt O60285); experiment: Kinase activity inhibition assay, P81 filter paper binding hot-spot technique (33P-ATP, CHKtide substrate); assay type: biochemical; conditions: final concentration of NUAK1 10 nM; 20 µM CHKtide substrate; incubated 2 hours at room temperature; read-out: IC50 (nM) of Test Compounds of the Present Application against NUAK1
T1 sequence (O60285 1-661): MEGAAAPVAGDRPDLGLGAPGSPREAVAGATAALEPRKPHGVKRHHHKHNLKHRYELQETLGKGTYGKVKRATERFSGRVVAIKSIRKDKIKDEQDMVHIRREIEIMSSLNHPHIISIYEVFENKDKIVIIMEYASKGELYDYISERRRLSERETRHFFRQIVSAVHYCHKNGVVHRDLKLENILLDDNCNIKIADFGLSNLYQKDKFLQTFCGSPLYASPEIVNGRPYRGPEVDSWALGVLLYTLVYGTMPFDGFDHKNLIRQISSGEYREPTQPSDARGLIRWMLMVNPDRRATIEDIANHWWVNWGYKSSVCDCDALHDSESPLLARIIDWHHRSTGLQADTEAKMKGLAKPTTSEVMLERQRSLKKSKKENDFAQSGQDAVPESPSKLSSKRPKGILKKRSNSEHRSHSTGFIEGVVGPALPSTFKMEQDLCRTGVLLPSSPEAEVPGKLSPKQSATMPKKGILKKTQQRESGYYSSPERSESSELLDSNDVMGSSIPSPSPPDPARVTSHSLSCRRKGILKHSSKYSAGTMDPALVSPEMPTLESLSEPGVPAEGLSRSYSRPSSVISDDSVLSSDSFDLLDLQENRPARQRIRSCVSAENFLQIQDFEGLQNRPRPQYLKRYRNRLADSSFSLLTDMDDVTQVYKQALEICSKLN
Protocol: (§1) The inhibitory activity of the pyrimidinamine small molecules involved in the present application against NUAK1 and NUAK2 kinases was determined using a kinase activity assay based on the P81 filter paper binding hot-spot technique (Nat Biotechnol. 2011, 29:1039). A brief description is as follows:
(§2) The assay buffer system contained 20 mM Hepes (pH 7.5), 10 mM MgCl2, 1 mM EGTA, 0.01% Brij35 (L23 polyoxyethylene lauryl ether), 0.02 mg/mL BSA (bovine serum albumin), 0.1 mM Na3VO4, 2 mM DTT, and 1% DMSO.
(§3) • 1. A 20 µM substrate solution was prepared with freshly prepared test buffer and CHKtide peptide fragments (Sanchez Y. Science. 1997, 277: 1497-1501) were used as a substrate. • 2. Kinases were added and mixed gently (a final concentration of NUAK1 was 10 nM; and a final concentration of NUAK2 was 50 nM). • 3. Test compounds dissolved in 100% DMSO were each added to the above kinase reaction mixture solution via Acoustic Droplet Ejection (Echo550; nanoliter) and the mixture was incubated for 5 minutes at room temperature. • 4. ^33P-labeled ATP (a ratio of unlabeled ATP to labeled ATP was 25:1 or 2.5:1) was added. • 5. The mixture was incubated for 2 hours at room temperature. • 6. Kinase activity was tested using the P81 filter paper combined with hotspot technology.
(§4) The IC50 values of the test compounds against NUAK1/NUAK2 were calculated according to the above test. For specific results, see Table 1.
(§5) The IC50 values were calculated by using a formula derived from sigmoidal dose-response curve (variable slope):
(§6) Y = Bottom + (Top-Bottom)/(1+10^((LogEC50-X)*Slope, where X is the logarithm of compound concentration, Y is the response (inhibition rate of kinase activity), and Y rises from bottom to top along the sigmoidal curve as the concentration increases. Table 1: IC50 (nM) of Test Compounds of the Present Application against NUAK1/NUAK2

[2] = target: T2, NUAK2 (Homo sapiens, UniProt Q9H093); experiment: as above; assay type: biochemical; conditions: final concentration of NUAK2 50 nM; 20 µM CHKtide substrate; incubated 2 hours at room temperature; read-out: IC50 (nM) of Test Compounds of the Present Application against NUAK2
T2 sequence (Q9H093 1-628): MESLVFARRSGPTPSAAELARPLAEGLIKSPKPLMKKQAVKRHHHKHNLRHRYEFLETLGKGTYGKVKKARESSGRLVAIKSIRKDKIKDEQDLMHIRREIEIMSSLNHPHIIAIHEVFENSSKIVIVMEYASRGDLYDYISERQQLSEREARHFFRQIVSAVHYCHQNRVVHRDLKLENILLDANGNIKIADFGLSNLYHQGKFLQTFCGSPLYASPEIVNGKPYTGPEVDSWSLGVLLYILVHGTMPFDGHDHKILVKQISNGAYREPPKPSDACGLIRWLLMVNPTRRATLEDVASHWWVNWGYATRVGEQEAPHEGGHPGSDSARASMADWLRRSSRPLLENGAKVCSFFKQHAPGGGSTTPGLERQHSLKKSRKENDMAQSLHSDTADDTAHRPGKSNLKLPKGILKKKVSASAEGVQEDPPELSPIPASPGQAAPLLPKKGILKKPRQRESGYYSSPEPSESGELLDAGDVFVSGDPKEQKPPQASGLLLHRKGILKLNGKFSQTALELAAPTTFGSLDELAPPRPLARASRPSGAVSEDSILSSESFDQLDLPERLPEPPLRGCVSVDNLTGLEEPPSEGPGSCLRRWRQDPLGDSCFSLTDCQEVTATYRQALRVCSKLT
Protocol: as §1, §2, §3, §4, §5, §6

SMILES	IC50 [1] [nM]	IC50 [2] [nM]
O=C(Nc1cccc(Oc2nc(Nc3cnn(C4CCNCC4)c3)ncc2Cl)c1)C1CC1(F)F (stereo not shown) [TDM-181127, N-(3-((5-Chloro-2-((1-(piperidin-4-yl)-1H-pyrazol-4-yl)amino)pyrimidin-4-yl)oxy)phenyl)-2,2-difluorocyclopropane-1-carboxamide]	161	352
CN1CCN(c2ccc(Nc3ncc(Cl)c(N(C)c4cccc(NC(=O)[C@@H]5CC5(F)F)c4)n3)cc2)CC1 [TDM-181131, (S)-N-(3-((5-Chloro-2-((4-(4-methylpiperazin-1-yl)phenyl)amino)pyrimidin-4-yl)(methyl)amino)phenyl)-2,2-difluorocyclopropane-1-carboxamide]	81	635
COc1cc(N2CCN(C)CC2)ccc1Nc1ncc(Cl)c(Oc2ccccc2NC(=O)[C@@H]2CC2(F)F)n1 [TDM-181160, (S)-N-(2-((5-Chloro-2-((2-methoxy-4-(4-methylpiperazin-1-yl)phenyl)amino)pyrimidin-4-yl)oxy)phenyl)-2,2-difluorocyclopropane-1-carboxamide]	4	13
CN1CCN(c2ccc(Nc3ncc(Cl)c(Oc4cccc(NC(=O)C5CC5(F)F)c4)n3)cc2)CC1 (stereo not shown) [TDM-181120]	21	311
COc1cc(N2CCN(C)CC2)ccc1Nc1ncc(Cl)c(Oc2ccccc2NC(=O)C2CC2)n1 [TDM-181132, N-(2-((5-Chloro-2-((2-methoxy-4-(4-methylpiperazin-1-yl)phenyl)amino)pyrimidin-4-yl)oxy)phenyl)cyclopropanecarboxamide]	24	37

From patent publication EP4745127A1, “PYRIMIDINAMINE NUAK INHIBITOR AS WELL AS PREPARATION METHOD THEREFOR AND USE THEREOF” (Technoderma Medicines Inc., priority 2023, dated 2025)
